Experimental data reported in patent US9663473B2 (Actelion Pharmaceuticals Ltd, priority 2013, dated 2017).

biological target: T1, recombinant human ALX receptor (Homo sapiens, UniProt P25090); test: Intracellular calcium measurements (FLIPR), ALX receptor agonistic activity; type: cell-based; settings: HEK293-hALXR-Gα16 cells, Fluo-4 calcium signal, normalized to WKYMVm 10 nM
T1 construct: expressed in transfected cells; host or cells: HEK293 (HEK293-hALXR-Gα16)
T1 sequence (P25090 1-351): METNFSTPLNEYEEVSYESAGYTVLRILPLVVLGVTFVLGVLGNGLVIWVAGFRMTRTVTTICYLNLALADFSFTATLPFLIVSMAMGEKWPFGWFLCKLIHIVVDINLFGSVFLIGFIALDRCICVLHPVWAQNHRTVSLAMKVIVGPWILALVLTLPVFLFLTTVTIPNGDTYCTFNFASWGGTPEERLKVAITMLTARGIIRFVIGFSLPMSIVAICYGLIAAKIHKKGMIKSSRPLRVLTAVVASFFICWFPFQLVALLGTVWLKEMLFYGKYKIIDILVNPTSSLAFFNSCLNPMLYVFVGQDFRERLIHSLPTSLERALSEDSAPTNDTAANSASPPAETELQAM
Procedure, shortened: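 HEK293 cells co-expressing human ALX receptor and Gα16 were loaded with 1 μM Fluo-4 AM for 60 min at 37° C., then exposed to serially diluted compounds on FLIPR Tetra. Peak fluorescence above baseline (ex 488/em 540 nm) was normalized to 10 nM WKYMVm as high control.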

Row | EC50 | SMILES
1 | 51 nM | COc1ccc(CC(NC(=O)Nc2ccccc2)c2nc3ccccc3[nH]2)cc1 (stereo not drawn) [Example 169, 1-(1-(1H-Benzo[d]imidazol-2-yl)-2-(4-methoxyphenyl)ethyl)-3-phenylurea]
2 | 209 nM | COc1ccc(CC(NC(=O)NC2CCCC2)c2nc3ccccc3[nH]2)cc1F (stereo not drawn) [Example 175, 1-(1-(1H-Benzo[d]imidazol-2-yl)-2-(3-fluoro-4-methoxyphenyl)ethyl)-3-cyclopentylurea]
3 | 1.1 nM | COc1ccc(C[C@@H](NC(=O)N[C@H]2CC[C@H](O)CC2)c2nc3cc(Br)ccc3[nH]2)cc1 [Example 179, 1-((R)-1-(5-Bromo-1H-benzo[d]imidazol-2-yl)-2-(4-methoxyphenyl)ethyl)-3-(trans-4-hydroxycyclohexyl)urea]
4 | 29 nM | COc1ccc(C[C@@H](NC(=O)NC2CCCN(CC(F)F)C2)c2nc3ccccc3[nH]2)cc1 (stereo partly drawn) [Example 186, 1-((R)-1-(1H-Benzo[d]imidazol-2-yl)-2-(4-methoxyphenyl)ethyl)-3-(-1-(2,2-difluoroethyl)piperidin-3-yl)urea]
5 | 19 nM | O=C(N[C@H](Cc1ccc(C(F)(F)F)cc1)c1nc2ccccc2[nH]1)N[C@H]1CC[C@H](O)CC1 [Example 190, 1-((R)-1-(1H-Benzo[d]imidazol-2-yl)-2-(4-(trifluoromethyl)phenyl)ethyl)-3-(trans-4-hydroxycyclohexyl)urea]
6 | 31 nM | Cc1ccc(C[C@@H](NC(=O)N[C@H]2CC[C@H](O)CC2)c2nc3ccccc3[nH]2)cc1 [Example 191, 1-((R)-1-(1H-Benzo[d]imidazol-2-yl)-2-(p-tolyl)ethyl)-3-(trans-4-hydroxycyclohexyl)urea]
7 | 0.1 nM | COc1ccc(C[C@@H](NC(=O)NC23CCC(O)(CC2)CC3)c2nc3ccc(Cl)cc3[nH]2)cc1 [Example 192, (R)-1-(1-(6-Chloro-1H-benzo[d]imidazol-2-yl)-2-(4-methoxyphenyl)ethyl)-3-(4-hydroxybicyclo[2.2.2]octan-1-yl)urea]
8 | 1.9 nM | O=C(N[C@H](Cc1ccc(Br)cc1)c1nc2ccc(Cl)cc2[nH]1)NC12CCC(O)(CC1)CC2 [Example 194, (R)-1-(2-(4-Bromophenyl)-1-(6-chloro-1H-benzo[d]imidazol-2-yl)ethyl)-3-(4-hydroxybicyclo[2.2.2]octan-1-yl)urea]
9 | 1.1 nM | O=C(N[C@H](Cc1ccc(Br)cc1)c1nc2ccc(F)cc2[nH]1)NC12CCC(O)(CC1)CC2 [Example 195, (R)-1-(2-(4-Bromophenyl)-1-(6-fluoro-1H-benzo[d]imidazol-2-yl)ethyl)-3-(4-hydroxybicyclo[2.2.2]octan-1-yl)urea]
10 | 50 nM | COc1ccc(C[C@@H](NC(=O)NCC(C)c2ccccc2)c2nc3ccccc3[nH]2)cc1 (stereo partly drawn) [Example 197, 1-((R)-1-(1H-Benzo[d]imidazol-2-yl)-2-(4-methoxyphenyl)ethyl)-3-(2-phenylpropyl)urea]
11 | 299 nM | COc1ccc(C[C@@H](NC(=O)NCc2ccccc2OC(F)F)c2nc3ccccc3[nH]2)cc1 [Example 198, (R)-1-(1-(1H-Benzo[d]imidazol-2-yl)-2-(4-methoxyphenyl)ethyl)-3-(2-(difluoromethoxy)benzyl)urea]
12 | 54 nM | COC[C@H](NC(=O)N[C@H](Cc1ccc(OC)cc1)c1nc2ccccc2[nH]1)c1ccccc1 [Example 201, 1-((R)-1-(1H-Benzo[d]imidazol-2-yl)-2-(4-methoxyphenyl)ethyl)-3-((R)-2-methoxy-1-phenylethyl)urea]
13 | 602 nM | COc1ccc(C[C@@H](NC(=O)NCc2ccccc2C)c2nc3ccccc3[nH]2)cc1 [Example 202, (R)-1-(1-(1H-Benzo[d]imidazol-2-yl)-2-(4-methoxyphenyl)ethyl)-3-(2-methylbenzyl)urea]
14 | 5 nM | COC[C@H](Cc1ccccc1)NC(=O)N[C@H](Cc1ccc(OC)cc1)c1nc2ccccc2[nH]1 [Example 204, 1-((R)-1-(1H-Benzo[d]imidazol-2-yl)-2-(4-methoxyphenyl)ethyl)-3-((S)-1-methoxy-3-phenylpropan-2-yl)urea]
15 | 144 nM | COc1ccc(C[C@@H](NC(=O)NCc2cccnc2N2CCOCC2)c2nc3ccccc3[nH]2)cc1 [Example 206, (R)-1-(1-(1H-Benzo[d]imidazol-2-yl)-2-(4-methoxyphenyl)ethyl)-3-((2-morpholinopyridin-3-yl)methyl)urea]
16 | 835 nM | COc1ccc(C[C@@H](NC(=O)NCc2ccccc2Cl)c2nc3ccccc3[nH]2)cc1 [Example 207, (R)-1-(1-(1H-Benzo[d]imidazol-2-yl)-2-(4-methoxyphenyl)ethyl)-3-(2-chlorobenzyl)urea]

The next lines start with the compound.

Row | SMILES | EC50
17 | COc1ccc(C[C@@H](NC(=O)NC23CCN(CC2)CC3)c2nc3ccccc3[nH]2)cc1 [Example 170, (R)-1-(1-(1H-Benzo[d]imidazol-2-yl)-2-(4-methoxyphenyl)ethyl)-3-(quinuclidin-4-yl)urea] | 76 nM
18 | COc1ccc(C[C@@H](NC(=O)N[C@H]2CC[C@](C)(O)CC2)c2nc3ccccc3[nH]2)cc1 [Example 173, 1-((R)-1-(1H-Benzo[d]imidazol-2-yl)-2-(4-methoxyphenyl)ethyl)-3-(trans-4-hydroxy-4-methylcyclohexyl)urea] | 3.1 nM
19 | COc1ccc(C[C@@H](NC(=O)NC2CCNC(=O)C2)c2nc3ccccc3[nH]2)cc1 (stereo partly drawn) [Example 174, 1-((R)-1-(1H-Benzo[d]imidazol-2-yl)-2-(4-methoxyphenyl)ethyl)-3-(2-oxopiperidin-4-yl)urea] | 288 nM
20 | COc1ccc(CC(NC(=O)NC2CC(C)(C)NC(C)(C)C2)c2nc3ccccc3[nH]2)cc1F (stereo not drawn) [Example 176, 1-(1-(1H-Benzo[d]imidazol-2-yl)-2-(3-fluoro-4-methoxyphenyl)ethyl)-3-(2,2,6,6-tetramethylpiperidin-4-yl)urea] | 58 nM
21 | COc1ccc(C[C@@H](NC(=O)Nc2cccc(OC)c2)c2nc3ccccc3[nH]2)cc1 [Example 177, (R)-1-(1-(1H-Benzo[d]imidazol-2-yl)-2-(4-methoxyphenyl)ethyl)-3-(3-methoxyphenyl)urea] | 247 nM
22 | COc1ccc(C[C@@H](NC(=O)Nc2ccccc2OC)c2nc3ccccc3[nH]2)cc1 [Example 178, (R)-1-(1-(1H-Benzo[d]imidazol-2-yl)-2-(4-methoxyphenyl)ethyl)-3-(2-methoxyphenyl)urea] | 699 nM
23 | COc1ccc(C[C@@H](NC(=O)NC2CCCN(CCF)C2)c2nc3ccccc3[nH]2)cc1 (stereo partly drawn) [Example 180, 1-((R)-1-(1H-Benzo[d]imidazol-2-yl)-2-(4-methoxyphenyl)ethyl)-3-(1-(2-fluoroethyl)piperidin-3-yl)urea] | 59 nM
24 | COc1ccc(C[C@@H](NC(=O)NC2CCN(CCF)CC2)c2nc3ccccc3[nH]2)cc1 [Example 181, (R)-1-(1-(1H-Benzo[d]imidazol-2-yl)-2-(4-methoxyphenyl)ethyl)-3-(1-(2-fluoroethyl)piperidin-4-yl)urea] | 88 nM
25 | COc1ccc(C[C@@H](NC(=O)NC2CCN(CC(F)F)CC2)c2nc3ccccc3[nH]2)cc1 [Example 182, (R)-1-(1-(1H-Benzo[d]imidazol-2-yl)-2-(4-methoxyphenyl)ethyl)-3-(1-(2,2-difluoroethyl)piperidin-4-yl)urea] | 40 nM
26 | COc1ccc(C[C@@H](NC(=O)N[C@H]2CC[C@@H](O)CC2)c2nc3ccccc3[nH]2)cc1 [Example 183, 1-((R)-1-(1H-Benzo[d]imidazol-2-yl)-2-(4-methoxyphenyl)ethyl)-3-(cis-4-hydroxycyclohexyl)urea] | 58 nM
27 | COc1ccc(C[C@@H](NC(=O)N[C@H]2CC[C@@](C)(O)CC2)c2nc3ccccc3[nH]2)cc1 [Example 189, 1-((R)-1-(1H-Benzo[d]imidazol-2-yl)-2-(4-methoxyphenyl)ethyl)-3-(cis-4-hydroxy-4-methylcyclohexyl)urea] | 19 nM
28 | COc1ccc(CC(NC(=O)NC23CCC(O)(CC2)CC3)c2nc3ccccc3[nH]2)cc1F (stereo not drawn) [Example 193, 1-(1-(1H-Benzo[d]imidazol-2-yl)-2-(3-fluoro-4-methoxyphenyl)ethyl)-3-(4-hydroxybicyclo[2.2.2]octan-1-yl)urea] | 1.8 nM
29 | COc1ccc(C[C@@H](NC(=O)NC23CCC(O)(CC2)CC3)c2nc3ccc(F)cc3[nH]2)cc1 [Example 196, (R)-1-(1-(6-Fluoro-1H-benzo[d]imidazol-2-yl)-2-(4-methoxyphenyl)ethyl)-3-(4-hydroxybicyclo[2.2.2]octan-1-yl)urea] | 0.8 nM
30 | COc1ccc(C[C@@H](NC(=O)NCc2ccccc2CN(C)C)c2nc3ccccc3[nH]2)cc1 [Example 199, (R)-1-(1-(1H-Benzo[d]imidazol-2-yl)-2-(4-methoxyphenyl)ethyl)-3-(2-((dimethylamino)methyl)benzyl)urea] | 81 nM
31 | COC[C@@H](NC(=O)N[C@H](Cc1ccc(OC)cc1)c1nc2ccccc2[nH]1)c1ccccc1 [Example 200, 1-((R)-1-(1H-Benzo[d]imidazol-2-yl)-2-(4-methoxyphenyl)ethyl)-3-((S)-2-methoxy-1-phenylethyl)urea] | 53 nM
32 | COc1ccc(C[C@@H](NC(=O)N[C@H](CO)c2ccccc2)c2nc3ccccc3[nH]2)cc1 [Example 203, 1-((R)-1-(1H-Benzo[d]imidazol-2-yl)-2-(4-methoxyphenyl)ethyl)-3-((S)-2-hydroxy-1-phenylethyl)urea] | 176 nM
33 | COc1ccc(C[C@@H](NC(=O)N[C@@H](CO)Cc2ccccc2)c2nc3ccccc3[nH]2)cc1 [Example 205, 1-((R)-1-(1H-Benzo[d]imidazol-2-yl)-2-(4-methoxyphenyl)ethyl)-3-((R)-1-hydroxy-3-phenylpropan-2-yl)urea] | 62 nM
